From patent publication US8148092B2, “System and method for performing G protein coupled receptor (GPCR) cell assays using waveguide-grating sensors” (Corning Incorporated, priority 2005, dated 2012)

How the values were obtained:
[1] = tested on: CHO cells with stably overexpressed rat muscarinic receptor subtype 1 (M1 CHO); assay: optical LID mass redistribution response of CHO cells with stably overexpressed rat muscarinic receptor subtype 1 after compound addition; format: cell-based, Chinese Hamster; conditions: compound 10 μM, compared with CHO cells, FIGS. 14, 15, 18
Protocol: FIG. 14 a time-dependent LID response of engineered Chinese Hamster Ovary (CHO) cells with over-expressed rat muscarnic receptor subtype 1 (thus this cell line is termed as M1 CHO) before and after compound addition. The compound concentration used is 10 μM for all compounds.

CHO cells = assay: optical LID (waveguide grating biosensor) mass redistribution response of adherent CHO cells after compound addition; format: cell-based, Chinese Hamster; conditions: for ligand-induced mass redistribution signal (total change in response): CHO cells, compound 10 μM, FIGS. 13, 15, 18
Text: Referring to FIG. 3, there is shown a flowchart illustrating the basic steps of a method 300 for monitoring in real time the mass redistribution due to an agonist-induced GPCR activation within living cells 108 using an optical LID biosensor 104 in accordance with the present invention. The method 300 includes the following steps: (a) provide an optical LID biosensor 104 (step 302); (b) place a certain number of living cells 108 in a medium which covers the optical LID biosensor 104 such that the living cells 108 attach onto the surface 110 of the optical LID biosensor 104 (step 304); (c) optionally apply a buffer solution at least once into the cell medium (step 306); (d) apply a solution containing a compound (agonist) into the cell medium (step 308); and (e) interrogate the optical LID biosensor 104 and monitor the time dependent optical response 201 of the living cells 108 cultured on the optical LID biosensor 104 (step 310).
It is known that CHO cells 108 endogenously express beta adrenergic receptors, alpha2-adrenergic receptors, P2Y receptors, as well as beta-arrestin and GRKs. It is also known that muscarinic receptors are endogenously expressed at very low level in the CHO cells 108. In this experiment, approximately ˜5×10^4 CHO cells 108 were placed within each well of a microplate that contained an array of optical LID biosensors 104. The CHO cells 108 were then cultured in 150 μl serum medium for 24 hours to ensure that the CHO cells 108 became adherent to the substrate surface 110.
Since muscarinic receptors are endogenously expressed at very low level in CHO cells 108; oxotremorine M, agonist for muscarinic receptors, served as a control. Each of these agonists was directly applied to a different one of the wells which contained the serum medium. The optical responses were then collected by the optical LID system 100.

Structure (SMILES)	ligand-induced mass redistribution signal (total change in response) [1]	ligand-induced mass redistribution signal (total change in response) (CHO cells)	agonist-induced time-dependent optical LID response (CHO cells; CHO cells in serum medium, ATP 100 μM, epinephrine 100 μM, clonidine 10 μM, oxotremorine M 10 μM, FIG. 10)
Cc1scc2c1N(C(=O)CN1CCN(C)CC1)c1ccccc1NC2=O [telenzepine]	not its antagonist (telenzepine) results in significantly larger responses	–	–
CCNC(=O)[C@H]1O[C@@H](n2cnc3c(N)ncnc32)[C@H](O)[C@@H]1O [NECA]	results in mass redistribution signals	results in mass redistribution signals	–
C[N+](C)(C)CC#CCN1CCCC1=O [oxotremorine M]	significantly larger responses in M1-CHO cells	–	almost no cell response
Clc1cccc(Cl)c1N=C1NCCN1 [clonidine]	–	induced mass redistribution signals	–
